Measurements taken from ChEMBL document CHEMBL5137017, “Identification of NVP-CLR457 as an Orally Bioavailable Non-CNS-Penetrant pan-Class IA Phosphoinositol-3-Kinase Inhibitor” (J Med Chem, 2022).
“And” between values parts separate entries of the source, which are not always exact repeats. Equal entries are not always repeated. The source made the active and inactive calls. No cut-off for these calls is given here.

Columns and labels:
[1] = target: T1, Tubulin (Homo sapiens) (UniProt P68371+Q9H4B7+P0DPH7+P68366+Q13509+Q71U36+P04350+Q3ZCM7+P07437+P68363+Q9BQE3+Q6PEY2+Q13885+Q9BVA1+Q9BUF5); assay: Binding affinity to tubulin in human A2058 cells assessed as condensed DNA score at 5 uM measured after 24 hrs by DiffQuick staining based microscopic analysis; assay type: cell-based
[2] = target: T1, Tubulin (Homo sapiens); assay: Binding affinity to tubulin in human A2058 cells assessed as condensed DNA score at 5 uM measured after 6 hrs by DiffQuick staining based microscopic analysis; assay type: cell-based
[3] = target: T2, Serine/threonine-protein kinase mTOR (Homo sapiens, UniProt P42345); assay: Binding affinity to human N-terminal GST-tagged mTOR assessed as phosphorylated 4EBP1 by TR-FRET assay
[4] = cells; settings: Rattus norvegicus, Rat1, 1 h
[5] = target: T2, Serine/threonine-protein kinase mTOR; assay: Displacement of Alexa Fluor labelled Tracer-314 from human N-terminal GST-tagged mTOR incubated for 1 hr by TR-FRET assay
[6] = Brain to blood ratio in OF1 mouse at 1 mg/kg, iv measured at 1 hr post dose by LC-MS/MS analysis; assay type: ADME, organism-based; settings: brain and blood, read-out: BBR
[7] = Brain to blood ratio in OF1 mouse at 1 mg/kg, iv measured at 5 mins post dose by LC-MS/MS analysis; assay type: ADME, organism-based; settings: brain and blood, read-out: BBR
[8] = Volume of distribution at steady state in Sprague-Dawley rat at 3 mg/kg, po or iv measured upto 24 hrs by LC-MS/MS analysis; assay type: ADME, organism-based; settings: in vivo
[9] = Oral bioavailability in Sprague-Dawley rat at 3 mg/kg measured for 0.25 to 24 hrs by LC-MS/MS analysis; assay type: ADME, organism-based; settings: in vivo, time 0.25-24 hrs
[10] = Stability in mouse liver microsomes assessed as hepatic extraction preincubated for 3 mins followed by NADPH addition and measured after 60 mins; assay type: ADME, Microsome; settings: time 63 min, read-out: ERH
[11] = Stability in rat liver microsomes assessed as hepatic extraction preincubated for 3 mins followed by NADPH addition and measured after 60 mins; assay type: ADME, Microsome; settings: read-out: ERH
[12] = Drug concentration in OF1 mouse brain at 1 mg/kg, iv measured at 1 hr post dose by LC-MS/MS analysis; assay type: ADME, organism-based; settings: in vivo
[13] = Half life in Sprague-Dawley rat at 3 mg/kg, po or iv measured upto 24 hrs by LC-MS/MS analysis; assay type: ADME, organism-based; settings: in vivo
[14] = Stability in human liver microsomes assessed as hepatic extraction preincubated for 3 mins followed by NADPH addition and measured after 60 mins; assay type: ADME, Microsome; settings: read-out: ERH
[15] = Drug concentration in OF1 mouse blood at 1 mg/kg, iv measured at 5 mins post dose by LC-MS/MS analysis; assay type: ADME, organism-based; settings: whole blood, read-out: Ct
[16] = AUC in Sprague-Dawley rat at 1 mg/kg, iv measured for 0.083 to 48 hrs by LC-MS/MS analysis; assay type: ADME, organism-based; parameters: time upper 48 hrs, dose 1 mg/kg, time lower 0.083 hrs, route iv; settings: in vivo
[17] = Drug concentration in OF1 mouse brain at 1 mg/kg, iv measured at 5 mins post dose by LC-MS/MS analysis; assay type: ADME, organism-based; settings: in vivo
[18] = Drug concentration in OF1 mouse blood at 1 mg/kg, iv measured at 1 hr post dose by LC-MS/MS analysis; assay type: ADME, organism-based; settings: whole blood, read-out: Ct
[19] = Toxicity in athymic nude mouse xenografted with rat Rat1 cells expressing myr-p110alpha assessed as body weight loss at 20 to 30 mg/kg, po bid measured for 7 to 15 days; assay type: organism-based; settings: in vivo, dose lower 20 mg/kg, time lower 7 day, dose upper 30 mg/kg, time upper 15 day
[20] = Toxicity in athymic nude mouse xenografted with rat Rat1 cells expressing myr-p110delta assessed as drug tolerance at 20 mg/kg, po bid measured for 7 to 15 days; assay type: organism-based; settings: in vivo, time 7-15 day
[21] = target: Tubulin (Sus scrofa) (UniProt P02554+P02550); assay: Inhibition of porcine tubulin polymerization assessed as inhibition of microtubule polymerization at 15 to 30 uM measured after 1 hr; assay type: protein assay; settings: dose 15-30 µM, DDE = dose-dependent effect
[22] = tested on: Rat1; assay: Antitumor activity at rat Rat1 cells expressing myr-p110alpha xenografted in athymic nude mouse assessed as T/C ratio at 20 mg/kg, po bid measured after 14 to 22 days; assay type: functional; settings: time 14-22 day
[23] = Toxicity in athymic nude mouse xenografted with rat Rat1 cells expressing myr-p110delta assessed as body weight loss at 30 mg/kg, po bid measured for 7 to 15 days; assay type: organism-based; settings: in vivo, time 7-15 day
[24] = tested on: Rat1; assay: Antitumor activity at rat Rat1 cells expressing myr-p110alpha xenografted in athymic nude mouse assessed as T/C ratio at 30 mg/kg, po bid measured after 14 to 22 days; assay type: functional; settings: time 14-22 day
[25] = tested on: Rat1; assay: Antitumor activity at rat Rat1 cells expressing myr-p110delta xenografted in athymic nude mouse assessed as T/C ratio at 20 mg/kg, po bid measured after 7 to 15 days; assay type: functional; settings: time 7-15 day
[26] = tested on: A2780; assay: Induction of cell cycle arrest in human A2780 cells assessed as G2/M marker expression level at 30 uM measured after 6 hr by immunofluorescence staining method; assay type: functional, cell-based
[27] = tested on: Rat1; assay: Antitumor activity at rat Rat1 cells expressing myr-p110delta xenografted in athymic nude mouse assessed as T/C ratio at 30 mg/kg, po bid measured after 7 to 15 days; assay type: functional; settings: time 7-15 day

Chain of Tubulin (Sus scrofa) (P02550 whole entry, looked up): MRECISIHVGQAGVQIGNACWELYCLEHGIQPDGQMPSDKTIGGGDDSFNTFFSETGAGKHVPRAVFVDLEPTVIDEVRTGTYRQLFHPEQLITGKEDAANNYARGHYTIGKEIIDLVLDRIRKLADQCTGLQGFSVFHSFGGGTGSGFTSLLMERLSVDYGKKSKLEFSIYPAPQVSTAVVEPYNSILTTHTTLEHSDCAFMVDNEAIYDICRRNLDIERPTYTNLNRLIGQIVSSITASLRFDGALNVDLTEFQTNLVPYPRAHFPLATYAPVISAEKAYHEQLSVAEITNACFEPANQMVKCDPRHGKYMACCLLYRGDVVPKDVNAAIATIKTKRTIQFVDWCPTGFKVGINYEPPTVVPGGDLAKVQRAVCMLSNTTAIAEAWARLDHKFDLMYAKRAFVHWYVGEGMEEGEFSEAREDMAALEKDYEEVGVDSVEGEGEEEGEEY
Chain of Tubulin (Sus scrofa) (P02554 whole entry, looked up): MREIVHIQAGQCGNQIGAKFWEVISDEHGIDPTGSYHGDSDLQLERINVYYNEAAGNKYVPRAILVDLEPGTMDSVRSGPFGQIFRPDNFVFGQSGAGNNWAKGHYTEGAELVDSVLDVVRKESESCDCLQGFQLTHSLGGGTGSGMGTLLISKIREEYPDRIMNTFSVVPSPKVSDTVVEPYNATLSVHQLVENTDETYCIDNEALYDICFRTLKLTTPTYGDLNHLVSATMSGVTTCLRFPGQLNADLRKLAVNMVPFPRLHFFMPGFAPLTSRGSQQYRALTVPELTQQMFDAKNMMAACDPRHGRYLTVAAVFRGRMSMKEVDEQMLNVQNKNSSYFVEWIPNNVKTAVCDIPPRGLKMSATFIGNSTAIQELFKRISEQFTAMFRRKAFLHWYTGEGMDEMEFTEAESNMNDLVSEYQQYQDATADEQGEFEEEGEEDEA

SMILES | Activity [1] [%] | Activity [2] [%] | IC50 [4] [nM] | IC50 [5] | further results
Nc1cc(C(F)(F)F)c(-c2cc(N3CCOCC3)nc(N3CCOCC3)c2)cn1 | > 12 | 6 | 2830 | – | IC50 [3]: > 9100 nM
Nc1cc(C(F)(F)F)c(-c2cc(N3CCN(c4ccccc4)C3=O)nc(N3CCOCC3)n2)cn1 | < 2 | < 2 | 1460 | 6200 nM | –
C[C@H]1[C@@H](CO)OC(=O)N1c1nc(-c2cnc(N)nc2C(F)(F)F)cc(N2CCOCC2)n1 | – | – | 30 | 1720 nM | –
CS(=O)(=O)N1CCN(Cc2cc3nc(-c4cccc5[nH]ncc45)nc(N4CCOCC4)c3s2)CC1 [PICTILISIB] | < 2 | < 2 | 44 | – | –
Nc1ncc(-c2cc(N3CCOCC3)nc(N3C(=O)OC[C@H]3CO)n2)c(C(F)(F)F)n1 | – | – | 180 | 5940 nM | –
C[C@]1(CO)COC(=O)N1c1nc(-c2cnc(N)nc2C(F)(F)F)cc(N2CCOCC2)n1 | – | – | 172 | 3610 nM | –
C[C@H]1[C@H](CO)OC(=O)N1c1nc(-c2cnc(N)nc2C(F)(F)F)cc(N2CCOCC2)n1 | – | – | 63 | 5110 nM | –
C[C@H]1COC(=O)N1c1nc(-c2cnc(N)cc2C(F)(F)F)cc(N2CCOCC2)n1 | – | – | 1760 | – | Kp at 1 h [6]: 0.11; Kp at 5 min [7]: 0.11
Nc1ncc(-c2cc(N3CCOCC3)nc(N3C(=O)O[C@@H]4COC[C@@H]43)n2)c(C(F)(F)F)n1 | – | – | 61 | 2000 nM | –
Nc1ncc(-c2cc(N3CCOCC3)nc(N3CCOCC3)n2)c(=O)[nH]1 | < 2 | < 2 | 481 | – | IC50 [3]: 440 nM
Nc1ncc(-c2cc(N3CCOC3=O)nc(N3CCOCC3)n2)c(C(F)(F)F)n1 | – | – | 137 | > 9100 nM | –
C[C@H]1COC(=O)N1c1nc(-c2cnc(N)nc2C(F)(F)F)cc(N2CCOCC2)n1 | – | – | 28 | 2880 nM | Vdss [8]: 4.4 L/kg; bioavailability [9]: 46%; hepatic extraction ratio at 1 h [10]: 0.27; hepatic extraction ratio at 1 h [11]: 0.67; Kp at 1 h [6]: 0.9; Ct [12]: 553 pmol/g; half-life [13]: 1.2 h; Kp at 5 min [7]: 1.11; hepatic extraction ratio at 1 h [14]: 0.54; concentration at 5 min [15]: 1640 nM; AUC [16]: 0.762 µM·h; Ct [17]: 1813 pmol/g; concentration at 1 h [18]: 616 nM
Nc1ncc(-c2cc(N3CCOCC3)nc(N3C[C@H](CO)OC3=O)n2)c(C(F)(F)F)n1 | – | – | 111 | 2180 nM | –
Nc1cc(C(F)(F)F)c(-c2cc(N3CCS(=O)(=O)CC3)nc(N3CCOCC3)n2)cn1 | < 2 | < 2 | 5220 | 9100 nM and > 9100 nM | IC50 [3]: > 9100 nM
COc1ccc2c(c1)OCCN2c1cc(-c2cnc(N)nc2)nc(N2CCOCC2)n1 | 6 | > 12 | 239 | – | Kp at 1 h [6]: 1.91; IC50 [3]: > 9100 nM; Kp at 5 min [7]: 3.23
Cn1c(=O)n(-c2ccc(C(C)(C)C#N)cc2)c2c3cc(-c4cnc5ccccc5c4)ccc3ncc21 [DACTOLISIB] | < 2 | < 2 | 14 | – | –
Nc1cc(C(F)(F)F)c(-c2cc(NC(CO)Cc3ccccc3)nc(N3CCOCC3)n2)cn1 (racemic) | – | – | 9020 | – | Kp at 1 h [6]: 0.93; Kp at 5 min [7]: 1.2
Nc1cc(C(F)(F)F)c(-c2cc(N3CCOCC3)nc(N3CCOCC3)n2)cn1 [BUPARLISIB] | > 12 | > 12 | – | – | Activity [19]: -7%; Activity [20]: Toxic; Kp at 1 h [6]: 1.74; inhibition [21]: Dde; T/C [22]: -0.15; Activity [23]: -8%; Kp at 5 min [7]: 1.98; T/C [24]: -0.61; T/C [25]: 0.1; Activity [26]: Active; T/C [27]: 0.12
